Publication PMC5362899, “Structural insights into the nucleotide base specificity of P2X receptors” (Scientific Reports, 2017)
Where a chain is given by its changes, count along the chain named.

Assays:
rat P2X4 rT186A mutant = target: T1, rat P2X4 rT186A mutant (Rattus norvegicus, UniProt P51577, T186A); assay: Two-Electrode Voltage Clamp recording, rat P2X4 T186A mutant in Xenopus oocytes; format: cell-based; details: 3 mM ATP, 3 mM CTP (Fig. S3)
T1 construct: rat P2X4 (NP_113782.1; WT and mutants) were transcribed from pGEMHE plasmids; expressed in transfected cells; host or cells: Xenopus laevis oocytes injected with cRNA from pGEMHE
T1 sequence (P51577 1-388 T186A): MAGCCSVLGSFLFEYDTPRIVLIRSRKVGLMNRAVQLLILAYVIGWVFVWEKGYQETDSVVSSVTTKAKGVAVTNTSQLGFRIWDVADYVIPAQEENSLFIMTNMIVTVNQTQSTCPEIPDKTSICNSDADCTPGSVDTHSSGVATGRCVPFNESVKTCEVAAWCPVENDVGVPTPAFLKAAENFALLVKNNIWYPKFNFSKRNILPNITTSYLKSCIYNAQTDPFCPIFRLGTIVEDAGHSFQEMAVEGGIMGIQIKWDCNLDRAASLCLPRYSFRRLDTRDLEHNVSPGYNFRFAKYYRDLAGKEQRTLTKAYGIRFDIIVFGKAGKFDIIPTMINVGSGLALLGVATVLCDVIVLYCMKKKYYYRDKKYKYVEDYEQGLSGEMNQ
Source text: (§1) To further investigate the functional roles of the residues involved in the base recognition, T189 and R143, we performed an electrophysiological analysis with the rat P2X4, since its electrophysiological properties have been well established. We first assessed the functional role of T189 in zfP2X4 and introduced mutations at the equivalent residue of the rat P2X4 to create three mutants (^rT186A, ^rT186V and ^rT186S; the superscript “r” means rat P2X4). […] Therefore, we examined the ^rWT and the ^rT186S mutant.
(§2) The cRNAs encoding zebrafish P2X4 (NP_705939; WT) and rat P2X4 (NP_113782.1; WT and mutants) were transcribed from pGEMHE plasmids, using a mMessage mMachine® T7 ULTRA kit (Ambion, Huntingdon, Cambridgeshire, UK). Xenopus laevis oocytes were prepared, and RNA (100 ng for zebrafish P2X4, and 20 ng for rat P2X4) was injected into the oocytes. The oocytes were incubated at 18 °C in Barth’s solution, containing 88 mM NaCl, 1 mM KCl, 2.4 mM NaHCO3, 10 mM HEPES, 0.33 mM Ca(NO3)2, 0.41 mM CaCl2, and 0.82 mM MgSO4, pH 7.4, supplemented with 50 μg/ml gentamicin, and were used for recording after 2–3 days. […] Oocytes were held at −70 mV with a bath-clamp amplifier (OC-725C, Warner Co., USA), and macroscopic currents were recorded and analyzed using the pClamp 10 software (Molecular Devices, USA)[33][34]. We measured n = 4 for zebrafish P2X4 data and n = 7–9 for rat P2X4 data. […]

rat P2X4 rT186V mutant = target: T2, rat P2X4 rT186V mutant (Rattus norvegicus, UniProt P51577, T186V); assay: Two-Electrode Voltage Clamp recording, rat P2X4 T186V mutant in Xenopus oocytes; format: cell-based; details: 3 mM ATP, 3 mM CTP (Fig. S3)
T2 construct: rat P2X4 (NP_113782.1; WT and mutants) were transcribed from pGEMHE plasmids; expressed in transfected cells; host or cells: Xenopus laevis oocytes injected with cRNA from pGEMHE
T2 sequence (P51577 1-388 T186V): T1 sequence (P51577 1-388 T186A) with A186V
Source text: as §1, §2

| Compound | nucleotide-evoked currents (rat P2X4 rT186A mutant) | nucleotide-evoked currents (rat P2X4 rT186V mutant) |
| --- | --- | --- |
| Nc1ccn([C@@H]2O[C@H](COP(=O)(O)OP(=O)(O)OP(=O)(O)O)[C@@H](O)[C@H]2O)c(=O)n1 [CTP] | no ATP- and CTP-evoked currents were detected | no ATP- and CTP-evoked currents were detected |
| Nc1ncnc2c1ncn2[C@@H]1O[C@H](COP(=O)(O)OP(=O)(O)OP(=O)(O)O)[C@@H](O)[C@H]1O [ATP, Adenosine 5-triphosphate] | no ATP- and CTP-evoked currents were detected | no ATP- and CTP-evoked currents were detected |
